Laboratory results reported in patent US20240216369A1, “THE USE OF A SPLICING MODULATOR FOR A TREATMENT SLOWING PROGRESSION OF HUNTINGTON'S DISEASE” (Novartis AG, priority 2019, published 2024).

How the values were obtained:
mutant HTT protein [1] = assay: Repeat dose timecourse study in BacHD mice: HTT protein (Western blot); format: in vivo
Method: At 72 h 168 h, 240 h and 336 h (branaplam 24 mg/kg) after the last treatment (vehicle or 24 mg/kg branaplam for 1 week or 3 weeks), blood, CSF, and tissue samples were obtained for PK and PD analysis. To collect CSF, mice were placed in a rodent anesthesia induction chamber where they are exposed to 4-5% isoflurane in 100% oxygen carrier gas. Once an appropriate plane of anesthesia was achieved, they were moved to a nose cone so that maintenance levels of isoflurane (1-3%) could be delivered throughout the procedure. The dorsal aspect of their cervical and occipital region was surgically prepped to visualize the dura mater under a microscope. A glass micropipette attached to a micromanipulator was introduced to the cisterna magna via a puncture through the dura mater at a point where no vasculature was visualized, and CSF was allowed to flow into the micropipette via capillary action. After approximately 15-30 minutes, the micropipette was removed from the cisterna magna, the CSF sample was transferred into Eppendorf tubes, flash frozen in liquid nitrogen, and stored at −80° C.
Following CSF collection, mice were kept under anesthesia with isoflurane. Blood was obtained via submandibular vein bleeds and collected for RNA extraction (PD analysis) using RNAprotect Animal Blood Tubes, and plasma (PK analysis) using K2EDTA coated tubes. Cells were removed from plasma by centrifugation for 10 min at 2000×g at 4° C., and plasma samples were stored at −80° C. Following blood collection, mice were given a lethal dose of ketamine/xylazine ([…] of a 10 mg:1 mg), and perfused with 18 mL of 0.9% cold saline mixed with 2 mL of RNAlater (Ambion) solution for tissue collection. Liver, skeletal muscle, brain striatum, brain cortex, hemibrain and cerebellum samples were flash frozen in liquid nitrogen and stored at −80° C.
Snap-frozen mouse tissue samples were homogenized in RIPA buffer with protease and phosphatase inhibitor (Thermo Scientific) by Precellys at 6000 rpm for 40 sec. Supernatant was obtained by centrifugation for 20 min at 13,000 rpm at 4° C. Total protein concentration was quantified using the BCA protein Assay (Thermo Scientific). Samples were resolved in 3-8% Tris-Acetate protein gel under reducing condition. Proteins were transferred onto PVDF membrane (Millipore) and western blot analysis was performed using […] anti-Huntingtin antibody (Millipore #MAB2166), mouse anti-actin (Sigma, #A5316) and mouse anti-vinculin (Bio-Rad, #MCA465). Protein bands were quantified by Image J.
With a view to characterize the time course of HTT protein lowering and recovery and to better model the PK-PD relationship an extended time-course study was performed. BacHD mice received three weekly, oral doses of 24 mg/kg branaplam for three weeks. […]

mutant HTT protein [2] = assay: Human PK/PD model scaled from BacHD mouse, simulations in adult patients; settings: Scaled PD parameters (cortex)
Source text: For the development of a PK/PD model in adults, the adult ACAT/PBPK model (Example 1c.1) was used to predict the concentration-time course of branaplam in plasma after oral branaplam administration. The PD parameters of the population PK/PD model in mouse were scaled for brain cortex and brain striatum from BacHD mouse to human according to following assumptions: • Mutant HTT baseline level in brain (R0) was kept equal to 1. • Drug's potency (IC50) was assumed to be the same in human as in BacHD mouse. The value was not corrected by the plasma protein binding since values in mouse and human were 0.741 and 0.8 in mouse and human, respectively. • Degradation rate or fractional turnover parameter of the mutant HTT protein synthesis (kout) was scaled from BacHD mouse to human considering an allometric scaling method based on the assumption that endogenous turnover of proteins, peptides and hormones can be scaled across different species and are related to energy turnover or metabolic rates (Gabrielsson J, Hjorth S, Quantitative Pharmacology: An Introduction to Integrative Pharmacokinetic-Pharmacodynamic Analysis. Swedish Pharmaceutical Press; 1 edition (May 7, 2012)). […]

[3] = 24 mg/kg, 3 weeks, time after last dose

CC1(C)CC(Oc2ccc(-c3ccc(-c4cn[nH]c4)cc3O)nn2)CC(C)(C)N1 [Compound 18, 5-(1H-pyrazol-4-yl)-2-(6-((2,2,6,6-tetramethylpiperidin-4-yl)oxy)pyridazin-3-yl)phenol]
maximal HTT protein lowering (relative to vehicle) (mutant HTT protein [1]; 24 mg/kg oral three times weekly for 3 weeks, 72 h after last dose): approximately 45%
mutant HTT protein, 1 week versus 3 weeks of dosing (mutant HTT protein [1]; 24 mg/kg oral, three times weekly): time-dependent lowering trend
return of HTT protein to baseline, cortex (mutant HTT protein [1]; [3]): 72 to 168 h
return of HTT protein to baseline, striatum (mutant HTT protein [1]; [3]): 72 to 336 h
Imax (mutant HTT protein [2]; first block): 1
Imax (mutant HTT protein [2]; second block): 1
